# From US20190240282A1, “Nanocage” (IMPERIAL INNOVATIONS LIMITED, priority 2016, published 2019)
# Tests used:
# HT-29 cells [1] = assay: LC-MS of lysed cells after dosing with the nanocage-antibody complex; format: cell-based; conditions: delivered by the nanocage with anti-EGFR; cells washed prior to lysis
# Protocol: HT-29 cells were grown in DMEM medium with 10% FBS overnight. Cells were then treated with the nanocage-antibody complex (100 μl) at 37° C. for different 48 h and 72 h. After incubation, the cells were washed 3× with cold PBS. Re-suspended cells were analysed by LC-MS (Agilent 6550), data were quantified using a 20 ppm window for Dox and PI based on a calibrated standard;
# Purified protein and cell extract samples were analysed by LCMS on an Agilent 6550. LC separation was achieved using a 1290 Infinity system (Agilent, Santa Clara, Calif.) and a Vydac 214MS C4 column, 2.1×150 mm and […], (Grace, Columbia, Md.) at a temperature of 35° C. with a buffer flow rate of 0.2 ml/min. with a denaturing mobile phase: buffer A was 0.1% formic acid in water and buffer B was 0.1% formic acid in acetonitrile. Elution of components was achieved using a linear gradient from 3% to 40% buffer B over 18.5 min. On-line mass spectra were accumulated on a 6550 quadrupole time-of-flight instrument with a dual electrospray Jet Stream source (Agilent). Mass spectra were acquired of the m/z range of 100-1700 at a rate of 0.6 spectra per second. […]
# Further evaluation of drug delivery was performed by mass spectrometry. Following the dosing procedure used above, cells were washed prior to lysis and drug presence measured by LC-MS (Agilent 6550). […]
# HT-29 cells [2] = assay: Phenotypic cell death assay using Vybrant cell staining and flow cytometry; format: cell-based; conditions: after 48 h, free drug alone, 5 μM
# Protocol: HT-29 cells were trypsinised and cell viability was assessed using the Trypan blue exclusion assay—count cells treated with Trypan blue dye using a haemocytometer, and determine the volume of cell suspension that contains 5×10^5 live cells. Live cells (5×10^5) seeded into a 12-well plate with a final volume of 500 μL. This final 500 μL volume will consist of 5×10^5 cells+medium+drug-Au-ZZ-hFTN+anti-EGFR antibody (0.5-1 μg). The plate was incubated in a tissue culture incubator set at 37° C., 5% CO2, 95% humidity for 24 h or 48 h before the experiment was stopped. Uptake of drug-Au-ZZ-hFTN by cells was stopped by removing the 500 μL solution containing test or control compounds, trypsinising cells and pelleting cells in preparation for cytotoxicity assays, e.g. Vybrant cell apoptosis assay. […] Within 30 min after the incubation period, the stained cells were analysed by flow cytometry, using 488 nm excitation with green fluorescence emission for YOPRO R-1 (i.e., 530/30 bandpass) and red fluorescence emission for propidium iodide (i.e., 610/20 bandpass), gating on cells to exclude debris. […] The stained cell population will separate into three groups: live cells show a low level of green fluorescence, apoptotic cells show an incrementally higher level of green fluorescence, and dead cells show both red and green fluorescence. […]
# HT29 cells = assay: Flow cytometry, antibody directed cell binding of GFP nanocage; format: cell-based
# Protocol: (§1) Purified wt ZZ-GFP-hFTN (20 μg) was mixed with either anti-NK1.1 antibody (1 μg) or anti-EGFR antibody (1 μg) in 210 μl of PBS. For each assay, 50 μl of the nanocage-antibody was mixed with 1×10^6 cells of either HT29 or MNK1.1 in 100 μl. Cells were analysed an a BD Fortessa using the FITC channel (ex 488 nm; emm 530-30 nm) to observe GFP fluorescence. […] Nanocage antibody are shown with MNK1.1 cells (B) and HT29 cells (D);
# (§2) Flow cytometry was performed on a BD Fortessa using the FITC channel to observe GFP (ex 488 nm; emm 530-30 nm; ToPro-3 was imaged in red channel (640 nm ex; 670/14 emission). Data was analysed using Flow-Jo software.
# (§3) Ferritin fusions containing an N-terminal ZZ domain, in principle, should be able to bind to IgG isotype antibodies since the Z-domain is a synthetic derivative of an IgG binding domain from Staphylococcus aureus protein A. The inventors evaluated the specificity with which they can direct the targeting of the ferritin nanocage to specific cell types by direct antibody interactions. To establish a fluorescent basis for determining cell binding they used the GFP labelled wt ZZ-GFP-hFTN.
# MNK1.1 cells = assay: as above; format: cell-based, mouse
# Protocol: as §1, §2, §3
molecule,measurement,setting,value
"COc1cccc2c1C(=O)c1c(O)c3c(c(O)c1C2=O)C[C@@](O)(C(=O)CO)C[C@@H]3O[C@H]1C[C@H](N)[C@H](O)[C@H](C)O1 [Dox, doxorubicin]",drug presence in lysed cells by LC-MS,HT-29 cells [1],present in the lysed cells
"CC[N+](C)(CC)CCC[n+]1c(-c2ccccc2)c2cc(N)ccc2c2ccc(N)cc21.[I-].[I-] [PI, propidium iodide]",drug presence in lysed cells by LC-MS,HT-29 cells [1],present in the lysed cells
"CC(=O)O[C@H]1C(=O)[C@@]2(C)[C@H]([C@H](OC(=O)c3ccccc3)[C@]3(O)C[C@H](OC(=O)[C@H](O)[C@@H](NC(=O)c4ccccc4)c4ccccc4)C(C)=C1C3(C)C)[C@]1(OC(C)=O)CO[C@@H]1C[C@@H]2O [Pac, Paclitaxel]",cell death,HT-29 cells [2],~9%
"wt ZZ-GFP-hFTN: wild-type human heavy chain ferritin with N-terminal ZZ antibody binding domain and GFP, forms nanocage",binding of the nanocage to cells (GFP fluorescence),HT29 cells; absence of antibody,no discernible background binding
same,binding of the nanocage to cells (GFP fluorescence),HT29 cells; presence of anti-EGFR antibody,complete shift in the fluorescence of the population
same,binding of the nanocage to cells (GFP fluorescence),MNK1.1 cells; absence of antibody,no discernible background binding
same,binding of the nanocage to cells (GFP fluorescence),MNK1.1 cells; presence of anti-NK1.1 antibody,complete shift in the fluorescence of the population
